Source: patent US9969716B2, “Indole derivatives as modulators of methyl modifying enzymes, compositions and uses thereof” (Constellation Pharmaceuticals, Inc., priority 2013, dated 2018)

Legend:
EZH2 = EZH2 (Homo sapiens, UniProt Q15910); test: EZH2 assay (rPRC2, 3H SAM methyl transfer to biotinylated oligonucleosomes, FlashPlate); assay type: biochemical
Summary of the method: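 rPRC2 (2 nM EZH2) with 0.2 μM biotinylated oligonucleosomes, 3.6 μM H3K27me3 peptide, 0.2 μM 3H SAM in pH 8.5 Tris buffer; compounds (80 to 0.16 μM) preincubated 20 min, reaction 60 min, SAH/EDTA quench. Methylated product captured on streptavidin FlashPlates, scintillation counted.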

Y641N EZH2 = Y641N EZH2 (Homo sapiens, UniProt Q15910, Y641N); test: Y641N EZH2 assay (as EZH2 assay, H3K27Me2 oligonucleosomes as substrate); assay type: biochemical
Chain of Y641N EZH2 (Q15910 whole entry Y641N): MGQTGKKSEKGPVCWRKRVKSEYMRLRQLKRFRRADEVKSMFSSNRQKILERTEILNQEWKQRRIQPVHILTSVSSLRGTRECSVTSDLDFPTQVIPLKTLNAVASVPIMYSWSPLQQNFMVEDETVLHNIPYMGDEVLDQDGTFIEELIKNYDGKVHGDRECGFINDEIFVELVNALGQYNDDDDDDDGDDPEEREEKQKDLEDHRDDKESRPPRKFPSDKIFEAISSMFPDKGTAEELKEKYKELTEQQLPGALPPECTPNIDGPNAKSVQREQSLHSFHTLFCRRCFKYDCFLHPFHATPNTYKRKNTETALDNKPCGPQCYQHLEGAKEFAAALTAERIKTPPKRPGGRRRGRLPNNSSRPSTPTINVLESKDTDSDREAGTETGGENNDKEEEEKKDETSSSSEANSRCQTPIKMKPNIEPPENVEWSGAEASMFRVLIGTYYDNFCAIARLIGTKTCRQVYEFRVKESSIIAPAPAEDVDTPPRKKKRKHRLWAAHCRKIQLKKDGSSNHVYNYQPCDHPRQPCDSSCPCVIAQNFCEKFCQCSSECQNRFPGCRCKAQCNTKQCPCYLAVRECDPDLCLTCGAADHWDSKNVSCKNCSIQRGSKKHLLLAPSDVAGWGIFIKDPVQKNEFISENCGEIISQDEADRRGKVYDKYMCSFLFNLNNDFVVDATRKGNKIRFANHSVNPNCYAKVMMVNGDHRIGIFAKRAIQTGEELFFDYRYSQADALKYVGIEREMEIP
Chain of Y641N EZH2 (O75530 whole entry partner): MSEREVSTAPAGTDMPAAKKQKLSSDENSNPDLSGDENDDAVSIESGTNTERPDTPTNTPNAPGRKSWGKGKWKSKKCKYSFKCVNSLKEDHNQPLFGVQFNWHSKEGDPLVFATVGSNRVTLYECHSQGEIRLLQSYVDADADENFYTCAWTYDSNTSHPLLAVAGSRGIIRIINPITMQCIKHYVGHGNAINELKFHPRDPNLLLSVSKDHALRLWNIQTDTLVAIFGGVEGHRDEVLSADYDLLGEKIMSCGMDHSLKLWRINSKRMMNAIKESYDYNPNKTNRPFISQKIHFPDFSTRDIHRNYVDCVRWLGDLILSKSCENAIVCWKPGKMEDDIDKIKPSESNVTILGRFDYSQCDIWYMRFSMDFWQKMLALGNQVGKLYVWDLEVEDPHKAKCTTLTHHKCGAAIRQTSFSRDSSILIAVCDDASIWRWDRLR
Chain of Y641N EZH2 (Q15022 whole entry partner): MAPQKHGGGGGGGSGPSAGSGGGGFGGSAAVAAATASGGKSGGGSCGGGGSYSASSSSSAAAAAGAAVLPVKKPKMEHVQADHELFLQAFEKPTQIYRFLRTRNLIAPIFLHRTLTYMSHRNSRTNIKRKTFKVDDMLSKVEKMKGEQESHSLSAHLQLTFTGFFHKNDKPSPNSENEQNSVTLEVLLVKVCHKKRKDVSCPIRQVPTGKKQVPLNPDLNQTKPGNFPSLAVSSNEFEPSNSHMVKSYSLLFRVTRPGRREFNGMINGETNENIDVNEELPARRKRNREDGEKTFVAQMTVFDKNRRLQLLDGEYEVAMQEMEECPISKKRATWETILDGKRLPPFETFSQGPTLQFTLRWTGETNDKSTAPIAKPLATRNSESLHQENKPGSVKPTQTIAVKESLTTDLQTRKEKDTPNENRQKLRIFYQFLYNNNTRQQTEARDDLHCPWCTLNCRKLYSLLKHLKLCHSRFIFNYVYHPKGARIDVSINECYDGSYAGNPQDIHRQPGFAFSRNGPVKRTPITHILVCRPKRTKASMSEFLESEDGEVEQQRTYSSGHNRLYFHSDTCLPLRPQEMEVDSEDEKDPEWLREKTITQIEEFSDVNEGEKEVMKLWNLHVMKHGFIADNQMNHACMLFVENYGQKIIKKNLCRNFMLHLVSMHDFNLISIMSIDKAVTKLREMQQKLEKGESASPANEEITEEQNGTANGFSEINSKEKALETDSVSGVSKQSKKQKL
Procedure: EZH2 Assay: Assays were carried out by mixing rPRC2 together with biotinylated oligonucleosome substrates in the presence of the radio-labeled enzyme co-factor, S-adenosyl-L-methionine (^3H SAM) (Perkin Elmer) and monitoring the enzymatically mediated transfer of tritiated methyl groups from ^3H SAM to histone lysine residues. The amount of resulting tritiated methyl histone product was measured by first capturing the biotinylated oligonucleosomes in streptavidin (SAV) coated FlashPlates (Perkin Elmer), followed by a wash step to remove un-reacted ^3H SAM, and then counting on a TopCount NXT 384 well plate scintillation counter (Perkin Elmer). The final assay conditions for EZH2 were as follows: 50 mM Tris Buffer pH 8.5, 1 mM DTT, 69 μM Brij-35 detergent, 5.0 mM MgCl2, 0.1 mg/mL BSA, 0.2 μM ^3H SAM, 0.2 μM biotinylated oligonucleosomes, 3.6 μM H3K27me3 peptide and 2 nM EZH2.
A 12.5 μL volume of the HMT enzyme, H3K27me3 peptide and oligonucleosome substrate in assay buffer was added to each well of the assay plate using a Multidrop Combi (ThermoFisher). Compounds were pre-incubated with the enzyme for 20 min, followed by initiation of the methyltransferase reaction by addition of 12.5 μL of ^3H SAM in assay buffer (final volume=25 μL). The final concentrations of compounds ranged from a top default concentration of 80 μM down to 0.16 μM in ten 2-fold dilution steps. Reactions were carried out for 60 minutes and quenched with 20 μL per well of 1.96 mM SAH, 50 mM Tris pH 8.5, 200 mM EDTA. Stopped reactions were transferred to SAV coated Flashplates (Perkin Elmer), incubated for 120 min, washed with a plate washer, and then read on the TopCount NXT (1.0 min/well) to measure the amount of methyl histone product formed during the reaction.

[1] = tested on: H3K27me3 mark in HeLa cells; test: H3K27me3 Alpha Hela Assay (AlphaLISA); assay type: cell-based; settings: Homo sapiens, 72 hrs, read-out: EZH2_Cell_H3K27me3_Alpha_HeLa (EC50_K27me3)
Summary of the method: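 Ten-dose 3-fold series on HeLa cells (1,000/well, 10% DMEM), 72 hrs at 37° C. Lysis, histone extraction, then AlphaLISA with anti-K27me3 acceptor beads, biotinylated anti-H3 C-ter antibody (3 nM final) and streptavidin donor beads (20 μg/mL final); duplicate plate used for viability. DMSO-normalized dose-response curves fitted.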

Chain of EZH2 (Q15910 whole entry): as the sequence (Q15910 whole entry Y641N) above, with N641Y counted along it
Chain of EZH2 (O75530 whole entry partner): as the sequence (O75530 whole entry partner) above
Chain of EZH2 (Q15022 whole entry partner): as the sequence (Q15022 whole entry partner) above

SMILES	IC50 (EZH2) [nM]	IC50 (Y641N EZH2) [nM]	EC50 [1] [nM]
COc1cc(C)[nH]c(=O)c1CNC(=O)c1c(C)n([C@H](C)C2CCN(c3ncc(Cl)cn3)CC2)c2ccccc12 [Compound 130]	< 100	< 100	< 400
COc1cc(C)[nH]c(=O)c1CNC(=O)c1c(C)n([C@H](C)C2CCN(c3ccc(F)cn3)CC2)c2ccccc12 [Compound 131]	< 100	< 100	< 400
COc1cc(C)[nH]c(=O)c1CNC(=O)c1c(C)n([C@H](C)C2CCN(c3ccc(C)nc3)CC2)c2ccccc12 [Compound 133]	< 100	< 100	< 400
Cc1cc(C)c(CNC(=O)c2c(C)n([C@H](C)C3CCN(S(=O)(=O)CCN4CCOCC4)CC3)c3ccccc23)c(=O)[nH]1 [Compound 134]	< 100	< 100	< 400
COc1cc(C)[nH]c(=O)c1CNC(=O)c1c(C)n([C@H](C)C2CCN(CC(C)(C)C(F)(F)F)CC2)c2ccccc12 [Compound 136]	100 to 1000	100 to 1000	< 400
COc1cc(C)[nH]c(=O)c1CNC(=O)c1c(C)n([C@H](C)C2CCN(S(=O)(=O)c3ccc(F)cc3)CC2)c2ccccc12 [Compound 137]	< 100	< 100	< 400
COc1cc(C)[nH]c(=O)c1CNC(=O)c1c(C)n([C@H](C)C2CCN(S(=O)(=O)c3ccccc3)CC2)c2ccccc12 [Compound 138]	< 100	< 100	< 400
Cc1cc(C)c(CNC(=O)c2c(C)n([C@H](C)C3CCN(S(=O)(=O)C4CCN(C)CC4)CC3)c3ccccc23)c(=O)[nH]1 [Compound 139]	< 100	< 100	< 400
COCCOCCOC(=O)N1CCC([C@@H](C)n2c(C)c(C(=O)NCc3c(OC)cc(C)[nH]c3=O)c3ccccc32)CC1 [Compound 140]	< 100	< 100	< 400
COc1cc(C)[nH]c(=O)c1CNC(=O)c1c(C)n([C@H](C)C2CCN(c3ccc(F)cc3)CC2)c2ccccc12 [Compound 141]	< 100	< 100	< 400
Cc1cc(Cl)c(CNC(=O)c2c(C)n([C@H](C)C3CCN(CC(C)(C)O)CC3)c3ccccc23)c(=O)[nH]1 [Compound 142]	< 100	< 100	< 400
Cc1cc(OC(F)F)c(CNC(=O)c2c(C)n([C@H](C)C3CCN(CCC(F)(F)F)CC3)c3ccccc23)c(=O)[nH]1 [Compound 143]	< 100	< 100	< 400
Cc1cc(C)c(CNC(=O)c2c(C)n([C@H](C)C3CCN(c4cccc(CN5CCOCC5)c4)CC3)c3ccccc23)c(=O)[nH]1 [Compound 144]	< 100	< 100	400 to 2000
COc1cc(C)[nH]c(=O)c1CNC(=O)c1c(C)n([C@H](C)C2CCN(CC3CC3)CC2)c2ccccc12 [Compound 145]	< 100	< 100	400 to 2000
CNc1cc(C)[nH]c(=O)c1CNC(=O)c1c(C)n([C@H](C)C2CCN(c3ncc(F)cn3)CC2)c2ccccc12 [Compound 146]	< 100	< 100	400 to 2000
Cc1cc(C)c(CNC(=O)c2c(C)n([C@H](C)C3CCN(S(=O)(=O)C4CN(C)C4)CC3)c3ccccc23)c(=O)[nH]1 [Compound 147]	< 100	< 100	400 to 2000
COc1cc(C)[nH]c(=O)c1CNC(=O)c1c(C)n([C@H](C)C2CCN(Cc3ccccn3)CC2)c2ccccc12 [Compound 148]	< 100	< 100	400 to 2000
COc1cc(C)[nH]c(=O)c1CNC(=O)c1c(C)n([C@H](C)C2CCN(c3cnccn3)CC2)c2ccccc12 [Compound 149]	< 100	< 100	400 to 2000

SMILES	IC50 (EZH2) [nM]	IC50 (Y641N EZH2) [nM]	EC50 [1] [nM]
COc1cc(C)[nH]c(=O)c1CNC(=O)c1c(C)n([C@H](C)C2CCN(Cc3c(F)cccc3F)CC2)c2ccccc12 [Compound 150]	< 100	< 100	400 to 2000
CCc1cc(C)[nH]c(=O)c1CNC(=O)c1c(C)n([C@H](C)C2CCN(CCC(F)(F)F)CC2)c2ccccc12 [Compound 151]	< 100	< 100	400 to 2000
COc1cc(C)[nH]c(=O)c1CNC(=O)c1c(C)n([C@H](C)C2CCN(CCCC(F)(F)F)CC2)c2ccccc12 [Compound 152]	< 100	< 100	400 to 2000
COc1cc(C)[nH]c(=O)c1CNC(=O)c1c(C)n([C@H](C)C2CCN(C(=O)c3ccccc3)CC2)c2ccccc12 [Compound 153]	< 100	< 100	400 to 2000
COc1cc(C)[nH]c(=O)c1CNC(=O)c1c(C)n([C@H](C)C2CCN(c3ccc(Cl)cc3)CC2)c2ccccc12 [Compound 154]	< 100	< 100	400 to 2000
CNc1cc(C)[nH]c(=O)c1CNC(=O)c1c(C)n([C@H](C)C2CCN(CCC(F)(F)F)CC2)c2ccccc12 [Compound 155]	< 100	< 100	400 to 2000
COc1cc(C)[nH]c(=O)c1CNC(=O)c1c(C)n([C@H](C)C2CCN(C[C@H](O)C(F)(F)F)CC2)c2ccccc12 [Compound 156]	< 100	< 100	400 to 2000
COc1cc(C)[nH]c(=O)c1CNC(=O)c1c(C)n([C@H](C)C2CCN(C(=O)C3CC3)CC2)c2ccccc12 [Compound 157]	< 100	< 100	400 to 2000
COc1cc(C)[nH]c(=O)c1CNC(=O)c1c(C)n([C@H](C)C2CCN(C(=O)N(C)C)CC2)c2ccccc12 [Compound 158]	< 100	< 100	400 to 2000
Cc1cc(C)c(CNC(=O)c2c(C)n([C@H](C)C3CCN(c4ccc(CN5CCOCC5)cn4)CC3)c3ccccc23)c(=O)[nH]1 [Compound 159]	< 100	< 100	400 to 2000
Cc1cc(C)c(CNC(=O)c2c(C)n([C@H](C)C3CCN(c4ccc(CN5CCOCC5)cc4)CC3)c3ccccc23)c(=O)[nH]1 [Compound 160]	< 100	< 100	400 to 2000
Cc1cc(C)c(CNC(=O)c2c(C)n([C@H](C)C3CCN(S(=O)(=O)CCN4CCCC4)CC3)c3ccccc23)c(=O)[nH]1 [Compound 161]	< 100	< 100	400 to 2000
Cc1cc(C)c(CNC(=O)c2c(C)n([C@H](C)C3CCN(C(=O)N4CCN(C)CC4)CC3)c3ccccc23)c(=O)[nH]1 [Compound 162]	< 100	< 100	400 to 2000
COc1cc(C)[nH]c(=O)c1CNC(=O)c1c(C)n([C@H](C)C2CCN(c3ccncn3)CC2)c2ccccc12 [Compound 164]	< 100	< 100	> 2000
COCCOCCOCCOCCOCCOCCOC(=O)N1CCC([C@@H](C)n2c(C)c(C(=O)NCc3c(OC)cc(C)[nH]c3=O)c3ccccc32)CC1 [Compound 165]	< 100	100 to 1000	> 2000
COc1cc(C)[nH]c(=O)c1CNC(=O)c1c(C)n([C@H](C)C2CCN(C(CF)CF)CC2)c2ccccc12 [Compound 166]	< 100	< 100	> 2000
COc1cc(C)[nH]c(=O)c1CNC(=O)c1c(C)n([C@H](C)C2CCN(C(=O)N3CCOCC3)CC2)c2ccccc12 [Compound 167]	< 100	< 100	> 2000
CCN(CC)C(=O)CN1CCC([C@@H](C)n2c(C)c(C(=O)NCc3c(OC)cc(C)[nH]c3=O)c3ccccc32)CC1 [Compound 168]	< 100	< 100	> 2000
